In general, Papp refers to a coefficient for how fast a substance crosses the barrier. Low readings indicate poor permeation, high ones ready permeation.

This data set in a line: passive permeability, PAMPA, ADME assay (AID 1508612). As to conditions: pH 7.4, 30.0 min, 50.0 µM. (The PAMPA barrier holds no transporters, so it reflects passive diffusion.)

In turn, `CC(C)(C)n1nc(-c2ccc(Cl)cc2)c2c(N)ncnc21` had an apparent permeability (Papp) greater than 1000 ×10⁻⁶ cm/s.
As for `Cc1noc(/C=C/c2ccccc2F)c1S(=O)(=O)N1CCC(C(=O)Nc2ccc(C#N)cc2)CC1`, the apparent permeability (Papp) was 8.58 ×10⁻⁶ cm/s.
`Cc1cc(C)nc(NC(=S)N2CCN(c3cccc(OC(F)F)c3)CC2)c1` yielded a Papp of 852 ×10⁻⁶ cm/s.
The same measure for `COc1cc(C(=O)N2CCN(c3cc(Cl)ccc3Cl)CC2)cc(OC)c1OC`: greater than 1000 ×10⁻⁶ cm/s; for `CC1=C(C(=O)Nc2ccccc2C)C(c2ccccc2Br)N=C(Nc2nc3ccccc3o2)N1` (configuration not stated): 390 ×10⁻⁶ cm/s; for `Cc1ccc(-c2cc(C(=O)NCc3ccc(S(N)(=O)=O)cc3)c3ccccc3n2)cc1C`: 71 ×10⁻⁶ cm/s.
As for `CC(=O)Nc1ncc(S(=O)(=O)Nc2cnccc2C(=O)Nc2nc(-c3ccccc3)cs2)s1`, the figure is 21.4 ×10⁻⁶ cm/s; as for `Cc1ccc(S(=O)(=O)NCCC(=O)Nc2nc(-c3ccccc3)cs2)cc1`, 861 ×10⁻⁶ cm/s; as for `CC(C)c1ccccc1-c1ncc(F)c(NCc2ccc(-c3ccn[nH]3)cc2)n1`, greater than 1000 ×10⁻⁶ cm/s.
The same measure for `Cc1ccc(S(=O)(=O)Nc2cnccc2C(=O)Nc2nc(-c3cccc(C)c3)cs2)cc1`: 729 ×10⁻⁶ cm/s; for `CC(C)CCNC(=O)[C@H](CC(C)C)NC(=O)[C@H]1O[C@@H]1C(=O)O`: less than 1 ×10⁻⁶ cm/s; for `CCOC(=O)c1cc(-c2ccco2)nc2c1c(C)nn2CCC#N`: 989 ×10⁻⁶ cm/s.
Take `Cc1ccccc1C(=O)N1CCc2cc(-c3csc(NC(=O)Cc4ccc5c(c4)OCO5)n3)ccc21`: the apparent permeability (Papp) was greater than 1000 ×10⁻⁶ cm/s.
The same measure for `O=C(Nc1nc(-c2ccccc2)cs1)c1ccncc1NS(=O)(=O)c1ccccc1`: 501 ×10⁻⁶ cm/s.
As for `COc1ccc(C2CC(=O)Nc3nc(N)sc32)cc1OC` (configuration not stated), the figure is 36.1 ×10⁻⁶ cm/s.
The same measure for `Cc1ccc(-n2ncc3c(Nc4cccc(C(=O)O)c4)ncnc32)cc1`: 13.2 ×10⁻⁶ cm/s.
As to `Cc1csc2nc(-c3cccc(NC(=O)c4cccc(F)c4)c3)cn12`, the Papp is greater than 1000 ×10⁻⁶ cm/s.
For the compound `COc1ccc(-c2ccc3ncc(Nc4ccc(C(N)=O)cc4)n3n2)cc1OC`, the Papp turned out to be 149 ×10⁻⁶ cm/s.
`Cc1noc(C)c1-c1ccc2ncnc(NCc3ccc4[nH]ccc4c3)c2c1` came in with a Papp greater than 1000 ×10⁻⁶ cm/s.
`O=C(c1ccc2c(c1)ncn2-c1ccccc1)N1CCCCC1` returned an apparent permeability coefficient (Papp) of 472 ×10⁻⁶ cm/s.
The same measure for `O=C1CCCCc2cc(O)c(O)cc21`: 20.9 ×10⁻⁶ cm/s; for `O=C(Nc1nc(-c2ccccc2)cs1)c1ccncc1NS(=O)(=O)c1ccc(F)c(F)c1`: greater than 1000 ×10⁻⁶ cm/s; for `O=C1CCCc2cc(S(=O)(=O)Nc3cnccc3C(=O)Nc3nc(-c4ccccc4)cs3)ccc2N1`: 1.7 ×10⁻⁶ cm/s.
The same measure for `O=C(O)C1CCN(c2ncc(-c3ccc4c(c3)OCCCO4)s2)CC1`: 10.1 ×10⁻⁶ cm/s; for `Cc1cc(C)c(C(=O)Nc2cccc([S+](=O)([O-])N3CCCCCC3)c2)[nH]1`: 990 ×10⁻⁶ cm/s.
In the case of `CC1Cc2cc(S(=O)(=O)NCc3ccc(N(C)C)cc3)ccc2N1C(=O)C1CCC1` (configuration not stated), the Papp was greater than 1000 ×10⁻⁶ cm/s.
In turn, `O=C(O)c1cccc(-c2noc(-c3ccccc3F)n2)c1` registered a Papp of 111 ×10⁻⁶ cm/s.
Take `O=C(NCCc1cnc[nH]1)c1ccc(-c2ncc3cnc(-c4cccc(F)c4)cn23)cc1`: the apparent permeability (Papp) was less than 1 ×10⁻⁶ cm/s.
As for `Cc1ccc2oc3c(c(=O)c2c1)C(c1cccc(O)c1)N(CCCN1CCOCC1)C3=O` (configuration not stated), the figure is 103 ×10⁻⁶ cm/s; as for `Cc1ccc(N2CCC(CNc3nc(-c4ccccc4C(C)C)ncc3C)CC2)cn1`, greater than 1000 ×10⁻⁶ cm/s; as for `Cc1ccc(S(=O)(=O)Nc2ccc(C(=O)Nc3nc(-c4ccccc4)cs3)cc2Cl)cc1`, 23.9 ×10⁻⁶ cm/s.
As for `Fc1ccc(Cl)cc1-c1nc(Nc2ccncc2)c2nccnc2n1`, the figure is greater than 1000 ×10⁻⁶ cm/s.
For the compound `Cc1cccc(-c2cc(NC(=O)c3ccccc3C)n(-c3ccccc3)n2)c1`, the Papp stood at 657 ×10⁻⁶ cm/s.
`CCOC(=O)c1nn(-c2ccc(OC)cc2)c(=O)c2c(N)scc12`: the apparent permeability coefficient (Papp) amounted to 187 ×10⁻⁶ cm/s.
As for `COc1ccc(OC)c(CNc2ncnc3onc(C)c23)c1`, the figure is 366 ×10⁻⁶ cm/s; as for `Cc1cc(NC(=O)c2ccc(NC(=O)Cc3ccc(Cl)c(Cl)c3)cc2)no1`, greater than 1000 ×10⁻⁶ cm/s.
The same measure for `Cn1nnnc1Sc1ncnc2scc(-c3ccccc3F)c12`: 338 ×10⁻⁶ cm/s.
As for `C[C@@H]1Cc2c([nH]c3cc(Cl)c(F)cc23)[C@]2(N1)C(=O)Nc1ccc(Cl)cc12`, the figure is 763 ×10⁻⁶ cm/s.
The compound `COc1cccc(CNc2ccc(S(=O)(=O)Nc3ccccc3)cc2)c1O` returned a Papp greater than 1000 ×10⁻⁶ cm/s.
`Nc1nc2c(s1)C(c1ccc(Br)cc1)CC(=O)N2` (configuration not stated) came in with a Papp of 297 ×10⁻⁶ cm/s.
As for `Cc1c(Cl)cccc1NC(=O)CNS(=O)(=O)c1cccs1`, the figure is 115 ×10⁻⁶ cm/s; as for `CC(C)(N)CNC(=O)CC1CCC2(CC1)OOC1(O2)C2CC3CC(C2)CC1C3` (configuration not stated), 488 ×10⁻⁶ cm/s.
The same measure for `Oc1ccc2[nH]cc(CCCCN3CC=C(c4ccccc4)CC3)c2c1`: greater than 1000 ×10⁻⁶ cm/s.
The same measure for `COc1ccc(Cl)cc1NC(=O)c1sc2nc3c(cc2c1N)N1CCC3CC1`: 55 ×10⁻⁶ cm/s; for `Cc1cccc(C)c1Nc1c(-c2cccs2)nc2ncccn12`: 969 ×10⁻⁶ cm/s; for `C[C@@H](NC(=O)c1ncnc(N)c1Cl)c1ncc(C(=O)Nc2cc(C(F)(F)F)c(Cl)cn2)s1`: greater than 1000 ×10⁻⁶ cm/s.
Compound `C[S+](=O)([O-])c1ccc(-c2nc(C(=O)N3CCOCC3)n3ccccc23)cc1` displayed a Papp of 180 ×10⁻⁶ cm/s.

These data come from PubChem BioAssay AID1508612.
